Here are results for one molecule from PMC6114082, “Synthesis of aminophenylhydroxamate and aminobenzylhydroxamate derivatives and in vitro screening for antiparasitic and histone deacetylase inhibitory activity” (International Journal for Parasitology: Drugs and Drug …, 2018).

A value given as a limit tells only on which side of the number the result lay.

The target in one data set is T1, HDAC 6 (Homo sapiens, UniProt Q9UBN7).
T1 construct: purchased Active Motif, Belgium
T1 sequence (Q9UBN7 1-1215): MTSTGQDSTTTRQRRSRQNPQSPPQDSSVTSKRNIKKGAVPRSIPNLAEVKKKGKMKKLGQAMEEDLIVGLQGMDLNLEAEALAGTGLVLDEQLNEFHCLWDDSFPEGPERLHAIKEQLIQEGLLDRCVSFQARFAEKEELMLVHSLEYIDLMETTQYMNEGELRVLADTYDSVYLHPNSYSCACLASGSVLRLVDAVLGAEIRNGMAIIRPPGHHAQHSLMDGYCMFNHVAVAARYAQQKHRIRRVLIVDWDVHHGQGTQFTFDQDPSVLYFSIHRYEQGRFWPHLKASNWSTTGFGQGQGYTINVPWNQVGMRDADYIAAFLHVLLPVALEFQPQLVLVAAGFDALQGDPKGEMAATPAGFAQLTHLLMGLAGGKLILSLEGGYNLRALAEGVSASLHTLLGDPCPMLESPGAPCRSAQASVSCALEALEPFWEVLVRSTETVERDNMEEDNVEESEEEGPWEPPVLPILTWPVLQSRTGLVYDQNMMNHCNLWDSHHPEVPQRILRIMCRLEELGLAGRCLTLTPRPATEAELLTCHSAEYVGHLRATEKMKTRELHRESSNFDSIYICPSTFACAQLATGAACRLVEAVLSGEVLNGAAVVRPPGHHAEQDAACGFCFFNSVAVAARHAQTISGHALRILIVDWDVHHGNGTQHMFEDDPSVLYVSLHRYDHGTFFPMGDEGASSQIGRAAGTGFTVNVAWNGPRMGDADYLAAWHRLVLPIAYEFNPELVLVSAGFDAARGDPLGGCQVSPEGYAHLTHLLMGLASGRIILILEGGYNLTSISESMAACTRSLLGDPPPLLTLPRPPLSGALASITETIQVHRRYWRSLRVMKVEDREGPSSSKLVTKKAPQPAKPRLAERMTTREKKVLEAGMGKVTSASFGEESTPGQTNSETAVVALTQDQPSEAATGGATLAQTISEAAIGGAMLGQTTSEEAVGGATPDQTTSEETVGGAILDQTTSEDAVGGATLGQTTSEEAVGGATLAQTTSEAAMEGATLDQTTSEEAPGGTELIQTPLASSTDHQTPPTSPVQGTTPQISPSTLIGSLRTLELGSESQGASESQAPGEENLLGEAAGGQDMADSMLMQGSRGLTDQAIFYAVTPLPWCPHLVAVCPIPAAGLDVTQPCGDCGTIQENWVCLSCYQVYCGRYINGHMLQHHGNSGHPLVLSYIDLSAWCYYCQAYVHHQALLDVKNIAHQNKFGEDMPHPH
The experiment in a line: Fluorometric HDAC assay, recombinant HDAC6. Type of data set: biochemical. How it is done:
(§1) The HDACi effect against HeLa nuclear extracts and recombinant proteins were measured using a fluorometric HDAC assay kit (Active Motif, Belgium) according to the manufacturer's instructions. […] A negative control containing trichostatin A at a final concentration of 2 μM was analyzed for each independent experiment.

Another data set has as its target T2, HDAC 3 (Homo sapiens, UniProt O15379).
T2 construct: purchased Active Motif, Belgium
Kind of data set: Fluorometric HDAC assay, recombinant HDAC3. Type of data set: biochemical. How it is done: as §1

The subject of data set [1] is L. tropica MHOM/BR/73/5-ASKM. Kind of data set: Antileishmanial activity, L. tropica promastigotes. Type of data set: cell-based, Leishmania tropica. As to conditions: Leishmania tropica. How it is done: (§2) The antitrypanosomatid activity of the compounds was ascertained as follows. Leishmania parasites were cultured at 26 °C in SDM-79 medium supplemented with 10% fetal calf serum (FCS), and the antileishmanial activity was determined according to a previously published protocol for LUC-expressing and wild-type Leishmania ([Sereno et al., 2001], [Abbassi et al., 2008]). Trypanosoma brucei gambiense were grown at 26 °C in Cunningham's medium supplemented with 10% FCS, 2 mM GlutaMAX-1 (Gibco, USA), 100 U/ml penicillin, 100 μg/ml streptomycin and […] bovine hemin. The epimastigote form of Trypanosoma cruzi (strain Y cl7 scl2, lineage Tc2) (kindly provided by Philippe Truc and Christian Barnabé, UMR 177 IRD-CIRAD InterTryp, Montpellier, France) were grown at 26 °C in liver infusion tryptose (LIT) medium, supplemented with 10% FCS, 2 mM GlutaMAX™-I, 100 U/ml penicillin, 100 μg/ml streptomycin and bovine hemin (20 mg/l) (Gibco). The antitrypanosomatids activity was determined using a protocol that was initialy set up for wild-type Leishmania ([Abbassi et al., 2008]). To assess the drug activity on Toxoplasma gondii, confluent human foreskin fibroblast (HFF) monolayers were infected with YFP-type I Rh kindly provided by B. Striepen, see ([Striepen et al., 1998]) or Tomato-type II Pru kindly provided by N. Blanchard (Toulouse), expressing parasites at 5 × 10^4 per well, which were then centrifuged for 30 s at 1300 rpm and incubated for 30 min in a water bath at 37 °C to allow invasion. The wells were then washed three times with PBS to eliminate extracellular parasites, and the drugs were added at various concentrations ranging from 1 to 50 μM. After incubation for 24 h at 37 °C in a humidified atmosphere containing 5% CO2, the cells were fixed in 2.5% methanol-free formaldehyde (Tebu-bio)/PBS for 30 min at room temperature. Nuclei were stained with Hoechst 33258 (2 μg/ml, Molecular Probes) for 20 min and then washed three times with water for 10 min each time. The number of infected cells, i.e., cells harboring a parasitophorous vacuole, and the number of parasites per vacuole were determined using an Olympus ScanR microscope ( × 20 objective) and ScanR software. The parasitic index in % compared to the control was calculated as follows: (PI=((number of parasite/100 cells in treated wells) x (% of infected macrophage in treated well)/(number of parasite/100 cells in untreated wells) x (% of infected macrophage in untreated wells))*100).

Data set [2] in a line: Cytotoxicity, HEPG2 cell line. Type of data set: cell-based, human. As to conditions: human, HepG2 cells.
The subject of another data set is HEPG2 cells. Kind of data set: Cytotoxicity, HEPG2 cell line. It counts as cell-based, human.
Data set [3] concerns Pru Type II strain of T. gondii. The experiment in a line: Anti-Toxoplasma activity in infected HFF monolayers, type II Pru strain. It counts as cell-based, Toxoplasma gondii. As to conditions: for IC50: 24 h, type II strain, in HFF. How it is done:
as §2, with “The wells were then washed three times with PBS to eliminate extracellular parasites, and the drugs were added at various concentrations ranging from 1 to 50 μM. After incubation for 24 h at 37 °C in a humidified atmosphere containing 5% CO2, the cells were fixed in 2.5% methanol-free formaldehyde (Tebu-bio)/PBS for 30 min at room temperature. Nuclei were stained with Hoechst 33258 (2 μg/ml, Molecular Probes) for 20 min and then washed three times with water for 10 min each time.” left out

T2 sequence (O15379 whole entry): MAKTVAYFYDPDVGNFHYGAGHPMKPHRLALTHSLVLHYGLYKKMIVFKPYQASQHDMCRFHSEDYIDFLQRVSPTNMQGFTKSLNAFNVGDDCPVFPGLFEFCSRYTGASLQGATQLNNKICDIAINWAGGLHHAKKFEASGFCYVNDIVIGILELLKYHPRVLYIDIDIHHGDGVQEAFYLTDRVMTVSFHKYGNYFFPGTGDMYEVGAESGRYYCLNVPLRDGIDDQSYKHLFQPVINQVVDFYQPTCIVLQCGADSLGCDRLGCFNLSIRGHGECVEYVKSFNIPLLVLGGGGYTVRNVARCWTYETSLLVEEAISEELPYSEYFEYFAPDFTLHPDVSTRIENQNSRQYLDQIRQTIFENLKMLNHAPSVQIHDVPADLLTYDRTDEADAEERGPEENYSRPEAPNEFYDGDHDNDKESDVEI
T2 sequence (O75376 395-489 partner limits assumed): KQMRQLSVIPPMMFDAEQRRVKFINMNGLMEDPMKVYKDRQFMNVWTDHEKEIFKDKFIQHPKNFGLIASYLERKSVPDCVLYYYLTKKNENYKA

`COc1cccc(CC(=O)Nc2ccc(C(=O)NO)cc2)c1` [Compound 363, N-hydroxy-4-[2-(3-methoxyphenyl)acetamido]benzamide]: on HDAC 6 (363 as compared to SAHA), the “Fold, HDAC 6” value is 34.9. In addition, the IC50 at HDAC 6 (recombinant protein, read-out: rHDAC 6 IC50) was 45 ± 15 nM; on HDAC 3 (recombinant protein, read-out: rHDAC 3 IC50), 160 ± 52 nM; in data set [1], above 60 µM; in data set [2], above 15 µM; in data set [3] (Toxoplasma gondii), 2250 nM; in data set [3], 2270 nM. Moreover, the “Fold, HDAC 3” value at HDAC 3 (363 as compared to SAHA) came out at 1.06. Besides, the “index of selectivity, HEPG2 vs T. gondii tachyzoites” value in the data set with HEPG2 cells was 42. Also, in data set [3] (IC50 HFF / IC50 T. gondii type II Pru strain), the “IS^a selectivity index for T. gondii, second value marked #” value is 46.
